{
  "source": "patent US20040014209A1",
  "about": "“Compositions and methods for modulating cell differentiation” (priority 2002, published 2004)",
  "key": {"[1]": {"test_system": "ventral marginal zone (VMZ) explants", "assay": "VMZ explant assay: mRNA injection, cardiac-specific gene expression and beating", "assay_type": "cell-based, Xenopus laevis", "description": "In a modification of this assay (FIG. 6A), we targeted mRNAs encoding Wnt and BMP antagonists to VMZ tissue by microinjection into the equatorial region of both ventral blastomeres of four-cell stage embryos. VMZ explants were isolated at stage 10, cultured, and assayed at stage 30 by RT-PCR for cardiac-specific gene expression.\nEmbryos were fertilized in vitro, dejellied in 2% cysteine-HCl (pH 7.8), and maintained in 0.1×MMR. Explant dissections were performed in 0.75×MMR using an eyelash knife. Embryos were staged according to Nieuwkoop and Faber (1994).\nMarginal zone explants were dissected at stage 10. Those explants to be examined by RT-PCR for expression of heart field marker- and heart muscle-specific genes were cultured until sibling embryos were stage 30. In situ hybridization was performed on explants cultured to the equivalent of stage 23 or stage 30. Explants to be scored for formation of beating hearts were maintained until the equivalent of stage 41.\nmRNA was transcribed from pSP35-chd, pSP64-ngn, pCS2-DKK1, pCS2-Crescent, pCS2-GSK3, pCS2-WIF, pCS2-dnXwnt8, pCS2-szl, and pXT7-FrzA using the SP6 and T7 mMessage mMachine kits (Ambion). All cDNAs used encode Xenopus proteins except those for Wnt1 and crescent, which encode chick isoforms. The Xenopus form of crescent was identified while this manuscript was in preparation (Pfeffer et al. 1997; Pera and De Robertis 2000; Shibata et al. 2000) and functions identically to the chick isoform in our assays. Xenopus and chick Crescent share 88% amino acid positional identity within the cysteine-rich domain. Injections were performed in 3% Ficoll in 1×MMR. Embryos were injected equatorially into the two ventral or two dorsal blastomeres at the four-cell stage to target expression to the ventral or dorsal marginal zone. The amount of mRNA injected is given in the text. For plasmid cDNA injections, 75 pg of pCS2-Xwnt3A, pCS2-Xwnt5A, and pCSKA-Xwnt8 and 100 pg of pCS2-cWnt11 supercoiled plasmid constructs were injected.\nRT-PCR was performed as described in Schneider and Mercola (1999). Twenty-five cycles were performed at an annealing temperature of 55° C., unless otherwise noted. Expression of EF1α was used as a positive control for the reverse transcriptase reaction. The following additional primers were used: XNkx2.5+, […] (SEQ ID NO: 7); XNkx2.5−, […] (SEQ ID NO: 8); M. actin+, […] (SEQ ID NO: 9); M. actin−, […] (SEQ ID NO: 10) (22 cycles); TnIc+, […] (SEQ ID NO: 11); TnIc−, […] (SEQ ID NO: 12); MHCα+, […] GTTCCG (SEQ ID NO: 13); MHCα−, […] (SEQ ID NO: 14); Tbx5+, […] (SEQ ID NO: 15); Tbx5−, […] (SEQ ID NO: 16) (27 cycles); XNkx2.10+, […] (SEQ ID NO: 17); and XNkx2.10−, […] (SEQ ID NO: 18) (59° C., 28 cycles).\nA secreted version of the C-terminal fragment was made by fusing the secretory region of human Dkk1 to the C-terminal region cysteine rich region, as described above. This protein is referred to as “C1.” Briefly, the HindIII-Asp718 C-terminal fragment of human Dkk1 (SEQ ID NO: 1) was ligated to the sequence encoding the secretory signal of Dkk1 and cloned into a vector permitting in vitro transcription. As a control, full length Dkk1 was used. RNA was prepared in vitro from the vector as described above. The RNA encoded a polypeptide comprising amino acids 158-266 of SEQ ID NO: 2. The RNA was then injected into noncardiogenic frog embryonic mesoderm, as described above and in Schneider and Mercola (2001) Genes & Dev. 15:304."}, "Wnt8": {"biological_target": "T1, Wnt8 (Xenopus laevis, UniProt P28026)", "T1 construct": "expressed in transfected cells; host or cells: Xenopus laevis embryos (mRNA injection at the two-cell stage), animal caps isolated at stage 9", "T1 sequence (P28026 23-358)": "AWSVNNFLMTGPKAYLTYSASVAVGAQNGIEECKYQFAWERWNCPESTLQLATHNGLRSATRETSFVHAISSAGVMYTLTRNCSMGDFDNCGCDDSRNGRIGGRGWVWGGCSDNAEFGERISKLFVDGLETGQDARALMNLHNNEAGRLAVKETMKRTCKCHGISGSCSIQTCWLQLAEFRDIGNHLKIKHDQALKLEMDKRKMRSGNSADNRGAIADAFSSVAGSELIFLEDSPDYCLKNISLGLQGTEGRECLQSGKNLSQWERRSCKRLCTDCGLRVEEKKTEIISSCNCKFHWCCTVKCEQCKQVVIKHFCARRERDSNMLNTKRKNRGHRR", "assay": "Block of Wnt8 induction of Siamois in animal caps", "assay_type": "cell-based", "conditions": "RT-PCR at stage 10.5", "description": "FIG. 6. dkk-1 and crescent, but not frzb, induce cardiac specific gene expression in noncardiogenic tissue. (A) mRNAs encoding various Wnt and BMP antagonists were injected equatorially into ventral blastomeres at the four-cell stage. Ventral marginal zone (VMZ) tissue was then explanted from Xenopus laevis at stage 10 and cultured until analyzed by RT-PCR for gene expression at stage 30 (see Materials and Methods). (B) Injection of dkk-1 or crescent induced both markers of cardiac mesoderm (Tbx5 and Nkx2.5) and heart muscle-specific genes (cardiac isoform of troponin-I, Tnlc, and myosin heavy chain-α, MHCα) in VMZ tissue. frzb, in contrast, induced muscle actin (m. actin), which is primarily a skeletal muscle marker, but not cardiac specific gene expression. […] Wnt8 and Wnt antagonist mRNAs were injected into the animal region of two-cell-stage embryos and caps were isolated at stage 9, cultured, and processed for RT-PCR at stage 10.5 (F). […] EF1α expression is shown as a control for the RT reaction in all cases.\nThe reason for the difference in doses of dkk-1 and crescent mRNA required to induce muscle actin and the cardiac-specific markers was explored further by evaluating their relative ability to block Siamois induction by Wnt8 (FIG. 6F, G). […]"}},
  "data": [
    {"substance": "dkk-1", "values": [
      {"measurement": "Explants with rhythmic beating", "setting": "[1]; 900 pg dkk-1, 1.5 ng crescent or 1.5 ng frzb mRNA, scored at stage 41", "value": 73.2, "unit": "%"},
      {"measurement": "Explants with induced cement glands", "setting": "[1]; VMZ explants cultured to stage 41", "value": 90.7, "unit": "%"},
      {"measurement": "mRNA dose inducing cardiac-specific gene expression", "setting": "[1]; VMZ explants, RT-PCR at stage 30", "value": "≥ 450", "unit": "pg"},
      {"measurement": "Heart-specific gene expression (TnIc, MHCα)", "setting": "[1]; mRNA injected ventrally at four-cell stage, VMZ explants, RT-PCR stage 30", "value": "strong expression of TnIc and MHCα"},
      {"measurement": "Wnt8 induction of Siamois", "setting": "Wnt8", "value": "block Wnt8 induction of Siamois"}
    ]}
  ]
}
